Results from article PMC8185113, “Critical angle reflection imaging for quantification of molecular interactions on glass surface” (Nature Communications, 2021).

Experiments:
wild-type SH-EP1 cells = experiment: control: acetylcholine on wild-type SH-EP1 cells (no nAChR) measured by CAR; assay type: binding; conditions: wild-type SH-EP1 cells without nAChR, 50, 100, 200 nM
Method: (§1) Most drugs are small molecules, and over 50% drug targets are membrane proteins.
(§2) CAR angle was set at 61.6 degrees with a sensitivity of 112 RIU^−1. The binding kinetic curves (black) were obtained by averaging the CAR response of seven cells and globally fitted to the first-order kinetics (red) (see Supplementary Figure 12b for the response of individual cells).
(§3) All the cell-related experiments including CAR, SPR, transmitted and fluorescence measurements (Figs. 4–6) were performed on an objective-based SPR microscope setup, which consisted of an inverted microscope (Olympus IX-81) and a ×60 (NA 1.49) oil-immersion objective. The light source for CAR and SPR imaging was a superluminescent light-emitting diode (SLED) (SLD-260-HP-TOW-PD-670, Superlum, Ireland) with 670 nm wavelength and 1 mW power set by a SLED current driver (PILOT4-AC, Superlum). The SLED was mounted on a translation stage (PT3, Thorlabs) with a motorized actuator (Z825B, Thorlabs) for adjusting incident angle. […] The light source for transmitted and fluorescence imaging were the stocking halogen and mercury lamp of the microscope, respectively. The excitation and emission wavelength used for imaging Alexa Fluor 488 labelled WGA were 488 nm and 518 nm, respectively, and the power density on the sample was ~0.1 mW/cm^2. A CMOS camera (ORCA-Flash 4.0, Hamamatsu) was used to record the images. […]

[1] = target: T1, nicotinic acetylcholine receptor (nAChR), human α4β2 receptor on SH-EP1_α4β2 cells (Homo sapiens, UniProt P17787+P43681); experiment: acetylcholine binding to nAChR on SH-EP1_α4β2 cells measured by SPR; conditions: SH-EP1_α4β2 cells on gold; 50, 100, 200 nM
T1 construct: expressed in transfected cells; host or cells: SH-EP1 cells (SH-EP1_α4β2), gift from Dr. Jie Wu
T1 sequence (P43681 29-627 limits assumed): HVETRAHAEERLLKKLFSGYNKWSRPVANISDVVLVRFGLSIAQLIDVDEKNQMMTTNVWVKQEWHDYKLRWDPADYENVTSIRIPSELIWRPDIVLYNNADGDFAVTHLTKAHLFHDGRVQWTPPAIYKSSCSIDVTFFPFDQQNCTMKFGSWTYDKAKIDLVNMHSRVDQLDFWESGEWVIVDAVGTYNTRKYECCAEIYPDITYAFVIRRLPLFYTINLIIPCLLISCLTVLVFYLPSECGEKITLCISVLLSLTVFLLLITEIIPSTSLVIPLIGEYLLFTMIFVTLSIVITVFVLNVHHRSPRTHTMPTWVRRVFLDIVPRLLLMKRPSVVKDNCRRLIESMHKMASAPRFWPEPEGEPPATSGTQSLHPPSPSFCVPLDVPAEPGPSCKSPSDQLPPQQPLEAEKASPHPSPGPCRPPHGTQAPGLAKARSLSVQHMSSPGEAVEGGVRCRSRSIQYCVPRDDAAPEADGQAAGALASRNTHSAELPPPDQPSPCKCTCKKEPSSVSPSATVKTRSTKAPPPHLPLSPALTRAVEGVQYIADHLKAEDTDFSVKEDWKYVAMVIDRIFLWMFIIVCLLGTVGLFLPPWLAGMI
T1 sequence (P17787 26-502): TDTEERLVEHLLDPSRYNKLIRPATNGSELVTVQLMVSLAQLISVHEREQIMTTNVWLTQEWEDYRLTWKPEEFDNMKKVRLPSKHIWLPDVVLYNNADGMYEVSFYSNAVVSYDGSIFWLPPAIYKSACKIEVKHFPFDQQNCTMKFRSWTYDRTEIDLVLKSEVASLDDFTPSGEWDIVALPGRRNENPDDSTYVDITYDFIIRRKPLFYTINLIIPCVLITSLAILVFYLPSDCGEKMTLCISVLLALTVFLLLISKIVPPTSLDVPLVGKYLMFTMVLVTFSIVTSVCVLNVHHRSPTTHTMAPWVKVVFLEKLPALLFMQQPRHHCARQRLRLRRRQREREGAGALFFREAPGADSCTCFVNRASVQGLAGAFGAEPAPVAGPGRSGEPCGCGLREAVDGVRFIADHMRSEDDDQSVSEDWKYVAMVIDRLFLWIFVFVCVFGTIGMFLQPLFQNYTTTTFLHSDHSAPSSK
Method: as §1, §2, §3

[2] = target: T1, nicotinic acetylcholine receptor (nAChR), human α4β2 receptor on SH-EP1_α4β2 cells; experiment: acetylcholine binding to nAChR on fixed SH-EP1_α4β2 cells measured by CAR imaging; conditions: 61.6 degrees, average of seven cells, global fit
Method: as §1, §2, §3

CC(=O)OCC[N+](C)(C)C [acetylcholine]
CAR response (wild-type SH-EP1 cells): negligible
CAR response (wild-type SH-EP1 cells; listed as Acetylcholine): No clear CAR response
SPR response [1]: no measurable response
kd [2]: (1.5±0.1)×10^-3 s^-1
